This is an account of results in US8846947B2, “Benzimidazoles and related analogs as sirtuin modulators” (GlaxoSmithKline LLC, priority 2008, dated 2014).

Read-outs that look alike come from different tables or passages of the source.

The assay addresses T1, SIRT1 (Homo sapiens, UniProt Q96EB6).
T1 sequence (Q96EB6 1-747): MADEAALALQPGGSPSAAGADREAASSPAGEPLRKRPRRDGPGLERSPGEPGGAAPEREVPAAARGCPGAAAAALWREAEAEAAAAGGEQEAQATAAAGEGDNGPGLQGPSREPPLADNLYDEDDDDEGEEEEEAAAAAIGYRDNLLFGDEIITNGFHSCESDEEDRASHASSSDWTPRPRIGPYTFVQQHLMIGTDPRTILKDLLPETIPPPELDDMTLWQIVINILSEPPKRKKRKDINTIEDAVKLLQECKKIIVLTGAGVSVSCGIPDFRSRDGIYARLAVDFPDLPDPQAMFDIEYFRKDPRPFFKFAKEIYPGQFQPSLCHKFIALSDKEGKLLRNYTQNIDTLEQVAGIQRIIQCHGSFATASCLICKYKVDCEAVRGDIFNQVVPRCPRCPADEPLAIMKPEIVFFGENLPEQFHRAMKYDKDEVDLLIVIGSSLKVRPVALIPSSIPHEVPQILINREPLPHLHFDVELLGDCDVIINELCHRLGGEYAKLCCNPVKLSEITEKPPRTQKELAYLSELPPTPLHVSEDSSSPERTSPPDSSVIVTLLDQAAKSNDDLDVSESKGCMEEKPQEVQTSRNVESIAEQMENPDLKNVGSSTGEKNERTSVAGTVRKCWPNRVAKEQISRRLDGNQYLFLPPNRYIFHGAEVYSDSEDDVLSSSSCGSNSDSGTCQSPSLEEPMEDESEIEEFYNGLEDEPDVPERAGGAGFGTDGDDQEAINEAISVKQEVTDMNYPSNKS
Briefly: Mass spectrometry based SIRT1 deacetylase activation assay (acetylated p53-derived peptide substrate). The class given is biochemical.

Where [1] appears, read: 0.5 μM peptide substrate, 120 μM βNAD+, 10 nM SIRT1, 25 min at 25° C.
Where [2] appears, read: 0.5 μM peptide substrate, 120 μM βNAD+, 10 nM SIRT1, 25 min at 25° C., read-out: EC1.5.
Where [3] appears, read: 0.5 μM peptide substrate, 120 μM βNAD+, 10 nM SIRT1, 25 minutes at 25° C.

With `O=C(Nc1cccc(OCC(O)CO)c1)c1cccc2[nH]c(-c3cc(F)ccc3C(F)(F)F)nc12` (centres unmarked) [Compound 480], under setting [1], the “Fold Act. (percent maximum fold activation)” value is recorded as “A (Fold activation >200%)”. Moreover, the EC1.5 under setting [2] is less than 1000 nM.

With `O=C(Nc1cccnc1)c1cncc2[nH]c(-c3ccccc3C(F)(F)F)nc12` [Compound 637], under setting [3], the EC1.5 result was “A (EC1.5<1.0 uM)” and the “Fold Act. (percent maximum fold activation)” value is reported as “A (Fold activation >200%)”.

Regarding `Cc1cc(C)nc(NC(=O)c2cccc3[nH]c(-c4cccc(C(F)(F)F)c4)nc23)c1` [Compound 279], the EC1.5 entry was “A (EC1.5<1.0 uM)” and the “Fold Act. (percent maximum fold activation)” value is reported as “A (Fold activation >200%)”.

For the compound `O=C(Nc1nccs1)c1cccc2[nH]c(-c3cccc(-c4nnn[nH]4)c3)nc12` [Compound 360], the EC1.5 result was “A (EC1.5<1.0 uM)” and the “Fold Act. (percent maximum fold activation)” value is given as “A (Fold activation >200%)”.

`O=C(Nc1cccc(OC[C@H](O)CO)c1)c1cccc2[nH]c(-c3ccc(Cl)cc3C(F)F)nc12` [Compound 698]: under setting [3], the EC1.5 entry is reported as “A (EC1.5<1.0 uM)” and the “Fold Act. (percent maximum fold activation)” value is “A (Fold activation >200%)”.

`O=C(Nc1nccs1)c1cccc2[nH]c(-c3ccccc3OC3CCNC3)nc12` (centres unmarked) [Compound 459, 2-(2-(pyrrolidin-3-yloxy)phenyl)-N-(thiazol-2-yl)-1H-benzo[d]imidazole-4-carboxamide]: under setting [1], the “Fold Act. (percent maximum fold activation)” value is “A (Fold activation >200%)”. Moreover, the EC1.5 under setting [2] fell in the range of 1000 to 25000 nM.

On to `Cc1cc(C)nc(NC(=O)c2cccc3[nH]c(-c4cccc(N5CCOCC5)c4)nc23)c1` [Compound 398], for which the “Fold Act. (percent maximum fold activation)” value under setting [1] is listed as “A (Fold activation >200%)”. Moreover, the EC1.5 under setting [2] is less than 1000 nM.

Consider `O=C1COc2ccc(-c3nc4c(C(=O)Nc5nccs5)cccc4[nH]3)cc2N1` [Compound 424], for which, under setting [1], the “Fold Act. (percent maximum fold activation)” value is “B (Fold Activation <200%)”. For the same compound, under setting [2], the EC1.5 was less than 1000 nM.

On to `Cc1cc(C)nc(NC(=O)c2cccc3[nH]c(-c4cnc5c(c4)OCCN5C)nc23)c1` [Compound 461], for which, under setting [1], the “Fold Act. (percent maximum fold activation)” value is “A (Fold activation >200%)”. The EC1.5 under setting [2] was less than 1000 nM.

For `O=C(Nc1ccccn1)c1cc(F)cc2nc(-c3ccccc3C(F)F)[nH]c12` [Compound 834], under setting [3], the EC1.5 entry is “A (EC1.5<1.0 uM)” and the “Fold Act. (percent maximum fold activation)” value was “A (Fold activation >200%)”.

Take `O=C(Nc1cccnn1)c1cc(N2CCOCC2)cc2[nH]c(-c3ccccc3C(F)(F)F)nc12` [Compound 631]: under setting [3], the EC1.5 entry is given as “A (EC1.5<1.0 uM)” and the “Fold Act. (percent maximum fold activation)” value was “A (Fold activation >200%)”.

Regarding `CS(=O)(=O)c1ccccc1-c1nc2c(C(=O)Nc3ccccn3)cccc2[nH]1` [Compound 519], the “Fold Act. (percent maximum fold activation)” value under setting [1] is “A (Fold activation >200%)”. Besides, under setting [2], the EC1.5 is less than 1000 nM.

Turning to `O=C(Nc1cccnn1)c1cccc2[nH]c(-c3ccccc3OCCN3CCOCC3)nc12` [Compound 488], the “Fold Act. (percent maximum fold activation)” value under setting [1] is given as “B (Fold Activation <200%)”. Moreover, under setting [2], the EC1.5 was 1000 to 25000 nM.

For `O=C(Nc1ccccn1)c1cc(F)cc2[nH]c(-c3ccc(OC[C@H](O)CO)cc3C(F)F)nc12` [Compound 830], under setting [3], the EC1.5 result is “A (EC1.5<1.0 uM)” and the “Fold Act. (percent maximum fold activation)” value was “A (Fold activation >200%)”.

On to `O=C(Nc1ccccn1)c1cccc2[nH]c(-c3ccc(N4CCCC4)cc3C(F)(F)F)nc12` [Compound 605], for which, under setting [3], the EC1.5 result is “B (EC1.5 1-25 uM)” and the “Fold Act. (percent maximum fold activation)” value was “A (Fold activation >200%)”.

In the case of `O=C(Nc1cccnc1)c1cccc2[nH]c(-c3cccc(N4CCOCC4)n3)nc12` [Compound 389], the EC1.5 result is reported as “B (EC1.5 1-25 uM)” and the “Fold Act. (percent maximum fold activation)” value is “A (Fold activation >200%)”.

In the case of `O=C(Nc1cccc2[nH]c(-c3cccc(C(F)(F)F)c3)nc12)c1cnccn1` [Compound 335], the EC1.5 result is listed as “B (EC1.5 1-25 uM)” and the “Fold Act. (percent maximum fold activation)” value was “A (Fold activation >200%)”.

Take `O=C(NC1CCOC1=O)c1cccc2[nH]c(-c3cc(F)ccc3C(F)(F)F)nc12` (centres unmarked) [Compound 378]: the EC1.5 result was “C (EC1.5 >25 uM)” and the “Fold Act. (percent maximum fold activation)” value was “B (Fold Activation <200%)”.

For the compound `Cc1cc(Cl)cc(-c2nc3c(C(=O)Nc4nccs4)cccc3[nH]2)c1OCCN1CCOCC1` [Compound 505], under setting [1], the “Fold Act. (percent maximum fold activation)” value is recorded as “A (Fold activation >200%)”. Further, the EC1.5 under setting [2] lay within 1000 to 25000 nM.

`O=C(Nc1ccccn1)c1cc(N2CCOCC2)cc2[nH]c(-c3ccc(F)cc3C(F)F)nc12` [Compound 750]: under setting [3], the EC1.5 result is on record as “A (EC1.5<1.0 uM)” and the “Fold Act. (percent maximum fold activation)” value is reported as “A (Fold activation >200%)”.

Regarding `Cc1nc(-c2nc3c(C(=O)Nc4nccs4)cccc3[nH]2)c(C)o1` [Compound 244], the EC1.5 result is “B (EC1.5 1-25 uM)” and the “Fold Act. (percent maximum fold activation)” value is recorded as “A (Fold activation >200%)”.

In the case of `O=C(Nc1nccs1)c1cccc2[nH]c(-c3ccc(Cl)cc3C(F)(F)F)nc12` [Compound 290], the EC1.5 entry was “A (EC1.5<1.0 uM)” and the “Fold Act. (percent maximum fold activation)” value is “A (Fold activation >200%)”.

Turning to `Cc1cc(OC[C@H](O)CO)ccc1-c1nc2c(C(=O)Nc3nccs3)cccc2[nH]1` [Compound 793], under setting [3], the EC1.5 result is “A (EC1.5<1.0 uM)” and the “Fold Act. (percent maximum fold activation)” value is “A (Fold activation >200%)”.

Consider `Cc1cnc(NC(=O)c2cccc3[nH]c(-c4ccc(Cl)cc4C(F)F)nc23)s1` [Compound 563], for which the “Fold Act. (percent maximum fold activation)” value under setting [1] is on record as “A (Fold activation >200%)”. In addition, under setting [2], the EC1.5 is less than 1000 nM.

Take `O=C(Nc1ccc(CN2CCCC2)cc1)c1cccc2[nH]c(-c3ccc(Cl)cc3C(F)(F)F)nc12` [Compound 491]: the “Fold Act. (percent maximum fold activation)” value under setting [1] is “A (Fold activation >200%)”. The EC1.5 under setting [2] was less than 1000 nM.

For `O=C(Nc1cccnc1Cl)c1cccc2[nH]c(-c3cccc(C(F)(F)F)c3)nc12` [Compound 286], the EC1.5 result was “B (EC1.5 1-25 uM)” and the “Fold Act. (percent maximum fold activation)” value was “A (Fold activation >200%)”.

`O=C(Nc1nccs1)c1cccc2[nH]c(-c3ccc(N4CCOCC4)cc3C(F)(F)F)nc12` [Compound 414]: the “Fold Act. (percent maximum fold activation)” value under setting [1] is recorded as “A (Fold activation >200%)”. Further, the EC1.5 under setting [2] was less than 1000 nM.

With `CC1(C)Cc2cc(-c3nc4c(C(=O)Nc5ccccn5)cccc4[nH]3)ccc2O1` [Compound 498], the “Fold Act. (percent maximum fold activation)” value under setting [1] is recorded as “B (Fold Activation <200%)”. Besides, the EC1.5 under setting [2] was in the range of 1000 to 25000 nM.

For `CC1(C)CN(c2ccc(-c3nc4c(C(=O)Nc5ccccn5)cccc4[nH]3)c(C(F)(F)F)c2)CCO1` [Compound 707], under setting [3], the EC1.5 result was “A (EC1.5<1.0 uM)” and the “Fold Act. (percent maximum fold activation)” value is “A (Fold activation >200%)”.

Turning to `O=C(Nc1nccs1)c1cccc2[nH]c(-c3ccc(OC[C@@H](O)CO)cc3C(F)F)nc12` [Compound 594], the “Fold Act. (percent maximum fold activation)” value under setting [1] is on record as “A (Fold activation >200%)”. In addition, under setting [2], the EC1.5 is less than 1000 nM.

Take `O=C(Nc1ccc(CN2CCOCC2)cn1)c1cccc2[nH]c(-c3cc(F)ccc3C(F)(F)F)nc12` [Compound 624, 2-(5-fluoro-2-(trifluoromethyl)phenyl)-N-(5-(morpholinomethyl)pyridin-2-yl)-1H-benzo[d]imidazole-4-carboxamide]: under setting [3], the EC1.5 result was “B (EC1.5 1-25 uM)” and the “Fold Act. (percent maximum fold activation)” value is reported as “A (Fold activation >200%)”.

Take `O=C(Nc1nc(CN2CCOCC2)cs1)c1cccc2[nH]c(-c3ccc(F)cc3C(F)(F)F)nc12` [Compound 681, 2-(4-fluoro-2-(trifluoromethyl)phenyl)-N-(4-(morpholinomethyl)thiazol-2-yl)-1H-benzo[d]imidazole-4-carboxamide]: under setting [3], the EC1.5 entry is “A (EC1.5<1.0 uM)” and the “Fold Act. (percent maximum fold activation)” value is given as “A (Fold activation >200%)”.

Consider `O=C(Nc1cccc(OC[C@H](O)CO)c1)c1cccc2[nH]c(-c3ccccc3C(F)F)nc12` [Compound 721], for which, under setting [3], the EC1.5 entry is “A (EC1.5<1.0 uM)” and the “Fold Act. (percent maximum fold activation)” value was “A (Fold activation >200%)”.

Take `CN1CCN(c2cccc(-c3nc4c(C(=O)Nc5ccccn5)cccc4[nH]3)c2)CC1` [Compound 528]: the “Fold Act. (percent maximum fold activation)” value under setting [1] is “A (Fold activation >200%)”. Also, under setting [2], the EC1.5 was less than 1000 nM.

With `O=C(Nc1ccccc1OCC(O)CO)c1cccc2[nH]c(-c3ccc(F)cc3C(F)(F)F)nc12` (centres unmarked) [Compound 727], under setting [3], the EC1.5 entry was “B (EC1.5 1-25 uM)” and the “Fold Act. (percent maximum fold activation)” value was “A (Fold activation >200%)”.

`O=C(Nc1cccnn1)c1cccc2[nH]c(-c3ccc(Cl)cc3C(F)(F)F)nc12` [Compound 432]: the “Fold Act. (percent maximum fold activation)” value under setting [1] is given as “A (Fold activation >200%)”. Also, under setting [2], the EC1.5 is less than 1000 nM.

Regarding `Cc1cnc(NC(=O)c2cccc3[nH]c(-c4ccc5c(c4)CC(C)(C)O5)nc23)s1` [Compound 500], the “Fold Act. (percent maximum fold activation)” value under setting [1] is “A (Fold activation >200%)”. In addition, the EC1.5 under setting [2] is less than 1000 nM.
